Source: patent publication EP4201929A1, “QUINOXALINE THIOREDOXIN REDUCTASE INHIBITORS” (geneXplain GmbH, priority 2021, dated 2023)

Assays:
Assay type in all cases: cell-based
HCT116-Cas9 = experiment: Growth suppression assay (resazurin); details: 48 hours of incubation, hydrochloride
Method: (§1) Breast, colon, ovarian, cervical, liver and lung carcinoma cell lines were grown in DMEM supplemented with 10% FBS, and antibiotics were cultured at 37 °C and 5% CO2. […] To obtain an oxygen concentration of 0.05%, the cells were flushed with the premixed gas continuously throughout the experiment.
(§2) Cells were grown in 96-well plates at a density of 3000 cells per well with or without doxycycline and treated with compounds. After 48 hours of incubation the proliferative cell reagent resazurin (Thermo Fisher Scientific) was added to the cells. The degree of resazurin reduction, which reflects cell viability, was measured by microplate reader by monitoring the absorbance at 570 nm and 600 nm, according to the manufacturer.

MCF7-Cas9 = experiment: Growth suppression assay (resazurin); details: 48 hours of incubation, hydrochloride
Method: as §1, §2

BT20 = experiment: Growth suppression, cancer cell line panel (resazurin); details: BT20 breast, 48 hours
Method: (§3) Breast, colon, ovarian, cervical, liver and lung carcinoma cell lines were grown in DMEM supplemented with 10% FBS, and antibiotics were cultured at 37 °C and 5% CO2. Osteosarcoma, melanoma, lymphoma, neuroblastoma and leukemia cell lines were cultured in RPMI 1640 with 10% FBS and antibiotics. An oxygen concentration of 0.3% was obtained by flushing a sealed box containing the cells with premixed gas composed of 95% nitrogen (N2) and 5% CO2 (AGA AB, Sweden). To obtain an oxygen concentration of 0.05%, the cells were flushed with the premixed gas continuously throughout the experiment.
as §2
(§4) Growth suppression by the soluble compound 1d*HCl in a panel of 27 cancer cell lines. The panel of cancer cell lines, including carcinomas of breast (MDA-MB231, SKBR3, T47D, MCF7; BT549, BT20, MDA-MB468), colon, (SW480, RKO, HT29, HCT116) ovarian (OVCAR3, OVCAR4, OVCAR8), cervical (SW756, C33A), liver (HEPG2) and lung (H23), osteosarcoma (SJSA and U2OS), melanoma (ME180), lymphoma (Raji, HDLM2), neuroblastoma (SKNAS, IMR32) and leukemia (NB4, K562) were treated with increasing concentrations of 1d*HCl: 0.4; 0.8; 1.6; 3.2; 6.4; 12.8; 25.6 µM in 96-well plates. After 48 hours of incubation the proliferative cell reagent resazurin was added to the cells. The degree of resazurin reduction, which reflects cell viability, was measured by microplate reader by monitoring the absorbance at 570 nm and 600 nm, according to the manufacturer, and the IC50 and AUC (area under curve) were determined (Table 2). As could be seen in Table 2, 1d*HCl suppressed the growth of cancer cell lines of a different origin, including carcinomas, osteosarcomas, melanoma, lymphoma, leukemia and neuroblastoma. These findings open up a possibility of the application of the present invention in anti-cancer therapy in a broad range of tumor types. Table 2: a) Breast cancer

C33A = experiment: as above; details: C33A cervical, 48 hours
Method: as §3, §2, §4

H23 = experiment: as above; details: H23 lung, 48 hours
Method: as §3, §2, §4

HCT116 = experiment: as above; details: HCT116 colon, 48 hours
Method: as §3, §2, §4

HT29 = experiment: as above; details: HT29 colon, 48 hours
Method: as §3, §2, §4

HepG2 = experiment: as above; details: HepG2 liver, 48 hours
Method: as §3, §2, §4

MCF7 = experiment: as above; details: MCF7 breast, 48 hours
Method: as §3, §2, §4

MDA- MB231 = experiment: as above; details: MDA-MB231 breast, 48 hours
Method: as §3, §2, §4

MDA-MB-468 = experiment: as above; details: MDA-MB-468 breast, 48 hours
Method: as §3, §2, §4

ME180 = experiment: as above; details: ME180 (table section Cervical), 48 hours
Method: as §3, §2, §4

OVCAR3 = experiment: as above; details: OVCAR3 ovarian, 48 hours
Method: as §3, §2, §4

OVCAR8 = experiment: as above; details: OVCAR8 ovarian, 48 hours
Method: as §3, §2, §4

RKO = experiment: as above; details: RKO colon, 48 hours
Method: as §3, §2, §4

Raji = experiment: as above; details: Raji lymphoma, 48 hours
Method: as §3, §2, §4

SKBR3 = experiment: as above; details: SKBR3 breast, 48 hours
Method: as §3, §2, §4

SW480 = experiment: as above; details: SW480 colon, 48 hours
Method: as §3, §2, §4

SW756 = experiment: as above; details: SW756 cervical, 48 hours
Method: as §3, §2, §4

[1] = test system: reactive oxygen species (ROS); experiment: Oxidative stress measurement (DCFH-DA-based assay)
Method: Cells were treated with compounds and incubated 30 min with 10 µM DCF-DA in serum free medium. Afterward, cells were trypsinized, washed with PBS and fluorescence was analyzed by a FACSCalibur flow cytometer (BD Biosciences) using FL1-H channel.
To get insight into the mechanism of the anti-tumor activity of 1d*HCl, we tested the level of oxidative stress upon treatment. We measured the induction of reactive oxygen species (ROS), using 2'-7'-Dichlorodihydrofluorescein diacetate (DCFH-DA)-based assay. […] After 8h of treatment, the induction of reactive oxygen species (ROS) was much higher.

In the case of `Cl.N#Cc1c(-c2cccnc2)[n+]([O-])c2cc(F)c(N3CCOCC3)cc2[n+]1[O-]` [1d*HCl, 6-Fluoro-7-(morpholin-4-yl)-3-(pyridin-3-yl)quinoxaline-2-carbonitrile-1,4-dioxide hydrochloride], the IC50 (HCT116-Cas9) is reported as 690 nM, the IC50 (MCF7-Cas9) is reported as 1600 nM and the AUC (BT20; area under curve, 0.4-25.6 µM) is reported as 9,64. For the same molecule, the IC50 (BT20; Homo sapiens, BT-20, resazurin) was 5910 nM, the IC50 (C33A; resazurin) was “variable” and the AUC (C33A; area under curve, 0.4-25.6 µM) was 21. For the same molecule, the AUC (H23; area under curve, 0.4-25.6 µM) was 5,38, the IC50 (H23; Homo sapiens, NCI-H23, resazurin, read-out: ICso) was 3540 nM and the AUC (HCT116; area under curve, 0.4-25.6 µM) was 1,37. For the same molecule, the IC50 (HCT116; Homo sapiens, HCT-116, resazurin) was 860 nM, the AUC (HT29; area under curve, 0.4-25.6 µM) was 4,77 and the IC50 (HT29; Homo sapiens, HT-29, resazurin) was 3500 nM. For the same molecule, the AUC (HepG2; area under curve, 0.4-25.6 µM) was 4,54, the IC50 (HepG2; Homo sapiens, resazurin, read-out: ICso) was 3590 nM and the IC50 (MCF7; Homo sapiens, resazurin) was 2540 nM. For the same molecule, the AUC (MCF7; area under curve, 0.4-25.6 µM) was 3,64, the IC50 (MDA- MB231; Homo sapiens, MDA-MB-231, resazurin) was 780 nM and the AUC (MDA- MB231; area under curve, 0.4-25.6 µM) was 1,21. The IC50 (MDA-MB-468; Homo sapiens, resazurin) was 2780 nM, the AUC (MDA-MB-468; area under curve, 0.4-25.6 µM) was 4,04 and the IC50 (ME180; Homo sapiens, ME-180, resazurin) was 2230 nM. For the same molecule, the AUC (ME180; area under curve, 0.4-25.6 µM) was 2,72, the IC50 (OVCAR3; Homo sapiens, OVCAR-3, resazurin) was 2640 nM and the AUC (OVCAR3; area under curve, 0.4-25.6 µM) was 4,813. For the same molecule, the IC50 (OVCAR8; Homo sapiens, OVCAR-8, resazurin) was 2360 nM, the AUC (OVCAR8; area under curve, 0.4-25.6 µM) was 2,98 and the IC50 (RKO; Homo sapiens, resazurin) was 538 nM. For the same molecule, the AUC (RKO; area under curve, 0.4-25.6 µM) was 0,942, the IC50 (Raji; Homo sapiens, resazurin) was 1220 nM and the AUC (Raji; area under curve, 0.4-25.6 µM) was 2,93. For the same molecule, the IC50 (SKBR3; Homo sapiens, SK-BR-3, resazurin) was 2130 nM, the AUC (SKBR3; area under curve, 0.4-25.6 µM) was 3,06 and the IC50 (SW480; Homo sapiens, resazurin) was 3720 nM. The AUC (SW480; area under curve, 0.4-25.6 µM) was 4,78, the IC50 (SW756; Homo sapiens, resazurin) was 1540 nM and the AUC (SW756; area under curve, 0.4-25.6 µM) was 2,84. For the same molecule, the “DCF fluorescence (induction of reactive oxygen species)” value ([1]; 2h after treatment) was “significant increase in DCF fluorescence” and the “induction of reactive oxygen species (ROS)” value ([1]; after 8h of treatment) was “much higher”.
